Reference: article PMC7918520, “From Data Mining of Chitinophaga sp. Genome to Enzyme Discovery of a Hyperthermophilic Metallocarboxypeptidase” (Microorganisms, 2021)
Peptide text beside a SMILES is read from it. * marks the point of attachment. Cbz = O=C(OCc1ccccc1)*

How the values were obtained:
ChtCP = target: T1, ChtCP (Chitinophaga sp. CB10, UniProt A0A822ZZF9); assay: Cd-ninhydrin assay of released amino acids, A500, Michaelis-Menten fit; format: biochemical; details: 50 mM HEPES pH 8.0, 65 °C; substrate 0.195 to 25 mM; metal addition not stated
T1 construct: homodimer; motifs 76HHPEL80 and 267HEXXH271
T1 sequence (A0A822ZZF9 entry or part of it): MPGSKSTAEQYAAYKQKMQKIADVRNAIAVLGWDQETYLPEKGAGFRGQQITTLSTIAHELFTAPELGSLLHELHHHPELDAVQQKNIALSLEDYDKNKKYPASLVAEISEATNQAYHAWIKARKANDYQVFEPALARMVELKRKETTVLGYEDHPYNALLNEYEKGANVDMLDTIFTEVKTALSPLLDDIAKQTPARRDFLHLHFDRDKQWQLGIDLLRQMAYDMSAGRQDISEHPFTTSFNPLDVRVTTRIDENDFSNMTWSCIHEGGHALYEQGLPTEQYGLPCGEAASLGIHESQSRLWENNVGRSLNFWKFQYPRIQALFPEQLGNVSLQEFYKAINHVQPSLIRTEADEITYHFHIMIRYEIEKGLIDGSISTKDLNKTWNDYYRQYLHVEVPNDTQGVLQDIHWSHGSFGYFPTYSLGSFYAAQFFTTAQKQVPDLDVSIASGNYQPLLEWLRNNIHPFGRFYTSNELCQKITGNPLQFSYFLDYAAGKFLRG
Source text: Cd-ninhydrin assay of released amino acids, A500, Michaelis-Menten fit on ChtCP

[1] = target: ChtCP, M32 family metallocarboxypeptidase from Chitinophaga sp. CB10 (Chitinophaga sp. CB10); assay: SEC; HiLoad Superdex 200 16/60, 20 mM Tris-HCl pH 8, 200 mM NaCl, 0.5% glycerol, 4 °C, 1 mL/min; elution volume compared with mass standards

Compound	Km (ChtCP)	stoichiometry N [1]
C[C@H](NC(=O)OCc1ccccc1)C(=O)N[C@@H](Cc1c[nH]c2ccccc12)C(=O)O [ZAW, benzyloxycarbonyl Ala-Trp] (Cbz-Ala-Trp-OH)	1.1 mM	–
C[C@H](NC(=O)[C@H](C)NC(=O)OCc1ccccc1)C(=O)O [ZAA, benzyloxycarbonyl Ala-Ala] (Cbz-Ala-Ala-OH)	28.1 mM	–
C[C@H](NC(=O)OCc1ccccc1)C(=O)N[C@@H](CC(N)=O)C(=O)O [ZAN, benzyloxycarbonyl Ala-Asn] (Cbz-Ala-Asn-OH)	34.1 mM	–
C[C@H](NC(=O)OCc1ccccc1)C(=O)N[C@@H](CCCNC(=N)N)C(=O)O [ZAR, benzyloxycarbonyl Ala-Arg] (Cbz-Ala-Arg-OH)	3.51 mM	–
ChtCP, M32 family metallocarboxypeptidase from Chitinophaga sp. CB10 (enzyme)	–	2
